The source of these data is publication PMC4129108, “The natural triterpene 3β,6β,16β-trihydroxy-lup-20(29)-ene obtained from the flowers of Combretum leprosum induces apoptosis in MCF-7 breast cancer cells” (BMC Complementary and Alternative Medicine, 2014).

The structures appear in SMILES notation. Values after ≈ are worked out from the molar mass of the structure shown.

Holding throughout (assay type): cell-based, human
The test system of data set [1] is cleaved caspase-9 in MCF-7 cells. Description: Quantification of cleaved caspase-9 by flow cytometric analysis. The note with it: MCF-7, 24 h. How it is done: (§1) Cells (2 × 10^5 cells/mL) were seeded on 6-well tissue culture plates, and grown for 1 day up to 70–80% confluence before treatment with the test substance. The TTHL was added to medium with FBS to obtain the different concentrations, and cells were treated at 37°C for 24 h in humidified atmosphere containing 5% CO2.
After treatment, cells (1 × 10^6) were harvested, resuspended in 25 μL PBS and fixed with 4% formaldehyde. After permeabilization and blocking (0.2% Triton X-100 in PBS and 1% BSA), cells were incubated with anti-caspase-9 antibody (diluted 1:1000) for 1 h at room temperature, followed by incubation with anti-rabbit FITC secondary antibody (Uniscience) (diluted 1:1000) for 1 h at room temperature in the dark. A total of 10,000 events were analyzed per sample by FACS Calibur flow cytometer. Fluorescence intensity in arbitrary units was plotted in histograms; the mean fluorescence intensity was calculated using CellQuest software.
For orientation: In flow cytometry, cells or beads pass a laser one at a time.

A further data set has as its system MCF-7 cells. Description: Alkaline comet assay. The note with it: MCF-7, 24 h. The method, then: as §1
The alkaline comet assay was performed as previously described. Briefly, 10 μL of cell suspension (1 × 10^4 cells) treated with TTHL were mixed with 90 μL LMP agarose, spread on a normal agarose precoated microscope slide, and placed at 4°C for 5 min to allow for solidification. Cells were lysed in high concentration of salt and detergent (2.5 M NaCl, 100 mM Na2EDTA, 10 mM Tris with 1% Triton X-100 and 10% DMSO freshly added) for 2 h. Slides were removed from lysing solution and washed three times with PBS. Subsequently, cells were exposed to alkali conditions (300 mM NaOH/1 mM Na2EDTA, pH >13, 30 min, 4°C) to allow DNA unwinding and expression of alkali-labile sites. Electrophoresis was conducted for 25 min at 25 V and 300 mA ([…]). After electrophoresis, the slides were neutralized and silver stained. One hundred cells were scored visually according to the tail length and the amount of DNA present in the tail. Each comet was given an arbitrary value of 0–4 (0, undamaged; 4, maximally damaged), as described by Collins et al.. Damage score was thus assigned to each sample and can range from 0 (completely undamaged: 100 cells × 0) to 400 (with maximum damage: 100 cells × 4). International guidelines and recommendations for the comet assay consider that visual scoring of comets is a well-validated evaluation method, as it is highly correlated with computer-based image analysis.

Data set [2] relates to HT29 cell (colorectal adenocarcinoma). Description: XTT cell viability assay, HT29. The note with it: for IC50: Homo sapiens, HT-29, XTT. How it is done:
(§2) The human cell lines MCF-7 (breast adenocarcinoma), HepG2 (hepatoma), T24 (bladder cancer), CACO-2 (colorectal adenocarcinoma) and MRC5 (lung normal fibroblast) were obtained from the Rio de Janeiro Cell Bank (Rio de Janeiro, RJ, Brazil). The HCT116 cell (colorectal carcinoma), and HT29 cell (colorectal adenocarcinoma) were kindly provided by Dr. Annette K. Larsen (Institut National de la Santé et de la Recherche Médicale - INSERM, Paris, França). All cell lines except MCF-7 were grown in DMEM supplemented with 10% or 20% (for CACO-2) FBS, 100 units.mL^-1 penicillin and 100 μg.mL^-1 streptomycin at 37°C in a humidified atmosphere of 5% CO2. MCF-7 cells were maintained in RPMI-1640 supplemented with 20% FBS at the same conditions described above.
(§3) The cytotoxic potential of the TTHL was evaluated by the XTT assay in human tumor cell lines as well as in MRC5 normal fibroblasts. Cells (1 × 10^4 cells) were seeded on 96-well plates in growth medium and incubated overnight. Afterwards, TTHL (0.5, 1.0, 2.5, 5.0, and 10 μg/mL) was added to each well and incubated for 24, 48, 72, and 120 h. Mitoxantrone, a cytostatic anthracenedione that intercalates in DNA and increases the incidence of double-strand breaks by stabilizing the cleavable complex of topoisomerase II and DNA, was used as positive control. At the end of each treatment, cell viability was assessed according to the manufacturer’s instructions. Briefly, after discarding the medium, 1 mL of XTT labeling mixture was added to the cells and incubated for 2 h at 37°C. Absorbance was measured with a SpectraMax reader (Bio-Rad, USA) at a test wavelength of 492 nm (A492) and a reference wavelength of 690 nm (A690). The final result corresponds to A492-A690. The absorbance of negative control cells was set as 100% viability, and the values for treated cells were calculated as a percentage of the control.
(§4) The IC20, IC50, and IC80 values and their 95% confidence intervals (CI 95%) were obtained by nonlinear regression using GraphPad Prism v5 program (Intuitive Software for Science, San Diego, CA, USA). Selective index (SI) was calculated by IC50 in MRC5 cells/IC50 in tumoral cells. All experiments were independently repeated at least three times, with triplicate samples for each treatment. Results are expressed as means ± standard deviation (SD). Data were analyzed by one-way analysis of variance (ANOVA), and means were compared using Tukey test, with P ≤ 0.05 considered as statistically significant.
Background: Formazan colour is commonly taken as a measure of viable cells.

A further data set deals with HepG2 (hepatoma). Description: XTT cell viability assay, HepG2. The note with it: for IC50: Homo sapiens, XTT. The method, then: as §2, §3, §4
Data set [3] has as its system intracellular ROS in MCF-7 cells. Description: ROS detection by flow cytometry (H2DCFDA). The method, then:
as §1
Levels of intracellular ROS were estimated following treatment with TTHL using 2′,7′-dichlorofluorescein diacetate (H2DCFDA, Sigma) as a fluorescent probe. Detection of oxidative stress was done by incubating the cells with 20 μM of H2DCFDA for 20 min at 37°C. Cells were then detached by trypsinization and washed twice with PBS. After filtration through cell strainer cap, cells were analyzed using a FACS Calibur flow cytometer with CellQuest software in accordance with Bass et al.. A total of 10,000 events were measured per sample. DCF fluorescence intensity was shown in arbitrary units.

With `C=C(C)[C@@H]1CC[C@@]2(C)[C@H]1[C@H]1CC[C@@H]3[C@@]4(C)CC[C@H](O)C(C)(C)[C@@H]4[C@H](O)C[C@@]3(C)[C@]1(C)C[C@@H]2O` [TTHL, 3β,6β,16β-trihydroxy-lup-20(29)-ene], the “levels of cleaved caspase-9” value in data set [1] (TTHL at IC20) is recorded as “no significant changes”. The “induction of cleaved caspase-9-labeled cells” value in data set [1] (TTHL at IC50) and in data set [1] (TTHL at IC80) was “increased induction of cleaved caspase-9-labeled cells” in each case. Besides, the “DNA damage (alkaline comet assay)” value with MCF-7 cells (TTHL at IC20) was “does not generate DNA-strand breaks”; in the data set with MCF-7 cells (TTHL at IC50), “induces signifcant DNA damage”; in the data set with MCF-7 cells (TTHL at IC80) it was “induces signifcant DNA damage”. In addition, the IC50 was 8 ± 0.14 µg/mL (≈ 17.4 µM) in data set [2] (HT29, 24 h treatment); 7 ± 0.42 µg/mL (≈ 15.3 µM) in data set [2] (HT29, 48 h treatment); 6.15 ± 0.21 µg/mL (≈ 13.4 µM) in data set [2] (HT29, 72 h treatment); 5.3 ± 0.28 µg/mL (≈ 11.6 µM) in data set [2] (HT29, 120 h treatment); 6.5 ± 0.43 µg/mL (≈ 14.2 µM) in the data set on HepG2 (hepatoma) (HepG2, 24 h treatment); 6.1 ± 0.28 µg/mL (≈ 13.3 µM) in the data set with HepG2 (hepatoma) (HepG2, 48 h treatment). Besides, the 50% inhibitory concentration (IC50) with HepG2 (hepatoma) (HepG2, 72 h treatment) was 5.45 ± 0.35 µg/mL (≈ 11.9 µM); in the data set on HepG2 (hepatoma) (HepG2, 120 h treatment) it was 0.88 ± 0.13 µg/mL (≈ 1.92 µM). Besides, the “Selectivity index (SI)” value in data set [2] (IC50 in MRC5 cells/IC50 in HT29, 24 h) is recorded as 1 X; in data set [2] (IC50 in MRC5 cells/IC50 in HT29, 48 h), 1 X; in data set [2] (IC50 in MRC5 cells/IC50 in HT29, 72 h), 1 X; in data set [2] (IC50 in MRC5 cells/IC50 in HT29, 120 h), 1 X; with HepG2 (hepatoma) (IC50 in MRC5 cells/IC50 in HepG2, 24 h), 1.3 X; with HepG2 (hepatoma) (IC50 in MRC5 cells/IC50 in HepG2, 48 h) it was 1 X. The “Selectivity index (SI)” value was determined as 1 X in the data set with HepG2 (hepatoma) (IC50 in MRC5 cells/IC50 in HepG2, 72 h) and 8 X in the data set on HepG2 (hepatoma) (IC50 in MRC5 cells/IC50 in HepG2, 120 h). In addition, the “increase in intracellular ROS production” value in data set [3] (MCF-7, 24 h treatment at IC50) amounted to 49%; in data set [3] (MCF-7, 24 h treatment at IC80) it was 64%.

Usually IC50 stands for the concentration that gives 50% inhibition. A higher IC50 goes with a need for much substance.
